# Results published in PubChem BioAssay (NCI).
#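 Values below derive from 48-hour exposures of cells grown in 96-well plates, with endpoints linearly interpolated between the two concentrations bracketing the appropriate inhibition level. GI50 is the concentration that inhibits growth by half. TGI denotes the concentration required for complete inhibition of growth.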
# What was measured:
# Experiment in all cases: inhibition of tumour cell growth, NCI panel, 48 h
# [1] = system: CAKI-1 renal
# [2] = system: HCC-2998 colon
# [3] = system: HL-60(TB) leukemia
# [4] = system: HT29 colon
# [5] = system: K-562 leukemia
# [6] = system: MALME-3M melanoma
# [7] = system: NCI-H522 lung
# [8] = system: OVCAR-3 ovarian
# [9] = system: SK-OV-3 ovarian
# [10] = system: SW-620 colon
Compound,GI50 [1] [µM],TGI [1] [µM],GI50 [2] [µM],TGI [2] [µM],GI50 [3] [µM],TGI [3] [µM],GI50 [4] [µM],TGI [4] [µM],GI50 [5] [µM],TGI [5] [µM],GI50 [6] [µM],TGI [6] [µM],GI50 [7] [µM],TGI [7] [µM],GI50 [8] [µM],TGI [8] [µM],GI50 [9] [µM],TGI [9] [µM],GI50 [10] [µM],TGI [10] [µM]
Cc1nc(NC(=O)CCCN2C(=O)c3cccc4cccc(c34)C2=O)sc1C(=O)Nc1cc(C(=O)NCCCN(C)C)n(C)c1,> 100,> 100,> 100,> 100,> 100,> 100,> 100,> 100,> 100,> 100,> 100,> 100,> 100,> 100,> 100,> 100,> 100,> 100,> 100,> 100
COC(=O)C(Cl)=C1CC1,–,32.6,–,> 100,–,51.3,–,> 100,–,60.5,–,46.5,–,33.9,–,65,–,> 100,–,37.1
COc1ccccc1CNCCCN1C(=O)c2ccc3c4c(ccc(c24)C1=O)C(=O)N(CCCNCCCN)C3=O,1.11,5.77,0.35,1.98,0.744,2.78,0.159,1.54,0.216,3.76,0.898,2.2,0.471,2.31,0.324,1.42,1.01,4.66,0.105,1.79
COc1ccc(NC(=O)c2sc3nc(C)c(C(O)c4ccccc4)cc3c2N)cc1 (centres undefined),3.52,> 100,2.48,24.1,2.76,10.3,2.81,88.8,1.01,> 100,3.22,44.9,2.21,20.4,2.48,13.8,4.59,> 100,2.64,28.1
Cc1ccc(S(=O)(=O)N2CCc3ccc(O)c4c3C2Cc2cc(Cl)ccc2-4)cc1 (centres undefined),1.3,16.9,1.65,5.37,1.05,4.06,5.61,10.8,1.16,14.8,2.59,9.62,0.827,2.29,0.733,1.63,1.11,3.75,1.2,9.35
COc1ccc(/C(C)=N/OC(=O)c2c(-c3ccccc3Cl)noc2C)cc1CN1CCOCC1,–,> 100,–,93.8,–,56.1,–,36.9,–,> 100,–,43.7,–,48.3,–,68.4,–,> 100,–,> 100
CC(=O)N=c1ccc2nc3c(cc(N)c4ccccc43)oc-2c1,1.55,3.17,0.503,1.87,0.279,6.8,2.09,4.62,0.389,–,1.39,2.84,1.44,3.47,0.207,0.684,1.92,4.95,0.745,2.39
C[C@@]12CCC(=O)C=C1CC[C@H]1C2=CC[C@]2(C)C1CC[C@@]2(C)O (some centres undefined),–,> 100,–,> 100,–,77.9,–,> 100,–,> 100,–,> 100,–,> 100,–,> 100,–,> 100,–,> 100
O=C1C(=O)C(Br)(Br)C(Br)=C1Br,–,34.9,–,62,–,38.2,–,38.5,–,41.3,–,35.4,–,6.68,–,29.1,–,> 100,–,31.9
CC1=C(C(=O)Nc2ccc(Cl)c(Cl)c2)C(c2ccco2)C(C(=O)Nc2ccc(Cl)c(Cl)c2)=C(C)N1,–,27.8,–,23.9,–,42.4,–,29.9,–,29,–,29.5,–,26.7,–,20.2,–,28.5,–,28.3
COc1ccc(C(c2c(O)c3ccccc3n(C)c2=O)c2c(O)c3ccccc3n(C)c2=O)cc1,–,> 100,–,> 100,–,90.7,–,> 100,–,> 100,–,> 100,–,60,–,> 100,–,> 100,–,> 100
COc1ccc(-c2nc(-c3nc4ccc(OC)cc4[nH]3)cc3c2[nH]c2ccccc23)cc1,6.07,> 100,6.57,> 100,4.08,> 100,3.46,> 100,1.52,> 100,27.5,> 100,2.7,> 100,3.51,> 100,> 100,> 100,4.83,> 100
N.N.NCCCCN.O=C([O-])C1(C(=O)[O-])CCC1.O=C([O-])C1(C(=O)[O-])CCC1.[Pt+4].[Pt+4],> 100,> 100,> 100,> 100,> 100,> 100,> 100,> 100,> 100,> 100,> 100,> 100,> 100,> 100,> 100,> 100,> 100,> 100,27,93.9
CCOC(=O)c1sc(Nc2ccc(Cl)cc2)nc1C,2.09,6.51,1.75,3.34,3.16,7.17,2.05,4.09,2.57,9.07,1.61,3.59,1.18,3.57,1.69,3.92,2.44,6.8,2.6,7.54
COC(=O)C1=C(CO)C2C=CC1C2 (centres undefined),–,> 100,–,> 100,–,> 100,–,> 100,–,> 100,–,> 100,–,> 100,–,> 100,–,> 100,–,> 100
CCOC(=O)c1cn(Cc2ccccc2)c(=O)n1Cc1ccccc1,–,> 100,–,> 100,–,> 100,–,> 100,–,> 100,–,> 100,–,> 100,–,> 100,–,> 100,–,> 100
COc1cc2nc(Nc3cccc(F)c3)nc(Nc3cc(C)[nH]n3)c2cc1OC,1.76,3.19,1.8,3.28,1.93,4.46,1.99,4.93,1.36,4.94,1.86,3.55,1.92,4.94,1.82,3.41,1.86,3.37,1.84,3.75
O=C1CCC2(CC1)SCCCS2,–,> 100,–,> 100,–,> 100,–,> 100,–,> 100,–,> 100,–,> 100,–,> 100,–,> 100,–,> 100
COc1ccc(/C=C/c2n[nH]c3ccc(N4CCOC4=O)cc23)cc1,2.48,> 100,2.3,7.17,1.44,4.04,1.49,> 100,2.54,> 100,4.3,8.66,1.87,14.5,2.97,9.42,2.82,9.57,1.64,10.8
CCCN(CCC)c1ccc(/C=N/NC(=O)c2cccnc2)c(Cl)c1,12.1,58,7.74,25.7,4.91,32.4,4.71,17.8,3.75,> 100,15,36.1,6.64,23.3,2.93,9.29,13.9,45.5,8.07,28.6
Cc1cc(Cl)cc2c1NC(=O)C2(O)C(C)C(=O)c1ccc(Cl)cc1 (centres undefined),–,> 100,–,> 100,–,43.5,–,> 100,–,> 100,–,> 100,–,> 100,–,> 100,–,> 100,–,> 100
CCn1cnc2c(Nc3cccc(Cl)c3)nc(N[C@@H]3CCCC[C@@H]3N)nc21,2.6,10.1,1.77,4.35,1.78,3.93,1.91,5.87,1.51,4.18,1.57,3.21,1.64,3.8,1.18,4.4,3.85,10.8,1.78,5.77
N#CCCN(c1ccc(-c2nnc(NC(=O)CNNC(=O)CC(=O)Nc3ccccc3)s2)cc1)S(=O)(=O)c1ccccc1,–,> 100,–,> 100,–,> 100,–,> 100,–,> 100,–,> 100,–,> 100,–,> 100,–,> 100,–,> 100
COc1cc(-c2cc(-c3nc4ccc(Cl)cc4[nH]3)[nH]n2)cc(OC)c1OC,2.8,11.1,5.98,18.7,2.49,7.47,4.14,16.4,3.04,> 100,2.58,8.32,1.9,5.73,3.5,12.1,4.47,14.3,4.99,18.6
N#Cc1ccnc(N2C(=O)CC[C@H]2C(=O)N(c2cncc(F)c2)[C@H](C(=O)NC2CC(F)(F)C2)c2ccccc2Cl)c1,> 100,> 100,> 100,> 100,> 100,> 100,56.2,> 100,> 100,> 100,> 100,> 100,> 100,> 100,63.9,> 100,> 100,> 100,> 100,> 100
COC(=O)[C@]1(C)CCC[C@@]2(C)C1CCC1=CC3(C(C)C)CCC12OO3 (some centres undefined),–,> 100,–,> 100,–,37.8,–,> 100,–,> 100,–,> 100,–,> 100,–,> 100,–,> 100,–,> 100
Nc1ncnc2c1ncn2C1OC(CO)=CC1O (centres undefined),–,> 37.5,–,> 37.5,–,> 37.5,–,> 37.5,–,> 37.5,–,> 37.5,–,> 37.5,–,> 37.5,–,> 37.5,–,> 37.5
